Experimental data as given in US8877747B2, “Indenone derivative and pharmaceutical composition comprising same” (Korea Research Institute of Chemical Technology, priority 2009, dated 2014).
Structures can show the parent of a compound that is named as a salt.

What follows are compounds tested on MC3T3-E1 cells (assay: ALP activity, differentiation of osteoblast cells). Conditions: Mus musculus, MC3T3-E1, 144 h; MC3T3E1 cells treated with 10 μM compound and OF; relates activity to OF-only group (100%); higher = more efficacious.
Format: cell-based
In short: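 MC3T3-E1 cells were cultured 6 days at 37 °C in osteogenic medium (ascorbic acid, β-glycerophosphate) with compound at 0.1, 1 and 10 μM; medium and compound were renewed every 2-3 days. Freeze-thaw lysates were protein-normalised and ALP activity was read with 4-nitrophenylphosphate; DMSO and OF-only groups served as comparators.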
COc1ccc(C2=C(c3cc(F)cc(F)c3)c3ccc(OCCN4CCN(S(C)(=O)=O)CC4)cc3C2=O)cn1 [Example 97, 3-(3,5-difluorophenyl)-2-(6-methoxypyridin-3-yl)-6-{2-[4-(methylsulfonyl)piperazin-1-yl]ethoxy}-1H-inden-1-one hydrochloride salt] was tested, and the activity at 10 µM was 179%.
Work on Cc1ccc(C2=C(c3cc(F)cc(F)c3)c3ccc(OCCN4CCN(S(C)(=O)=O)CC4)cc3C2=O)cc1 [Example 98, 3-(3,5-difluorophenyl)-6-{2-[4-(methylsulfonyl)piperazin-1-yl]ethoxy}-2-p-tolyl-1H-inden-1-one hydrochloride salt] yielded an activity at 10 µM of 146%.
In the case of COc1ccc(C2=C(c3cc(F)cc(F)c3)c3ccc(OCCN4CCN(S(C)(=O)=O)CC4)cc3C2=O)cc1F [Example 99, 2-(3-fluoro-4-methoxyphenyl)-3-(3,5-difluorophenyl)-6-{2-[4-(methylsulfonyl)piperazin-1-yl]ethoxy}-1H-inden-1-one hydrochloride salt], the activity at 10 µM is reported as 212%.
For COc1ccc(C2=C(c3cc(F)cc(F)c3)c3ccc(OCCC4CCN(S(C)(=O)=O)CC4)cc3C2=O)cn1 [Example 100, 3-(3,5-difluorophenyl)-2-(6-methoxypyridin-3-yl)-6-{2-[1-(methylsulfonyl)piperidin-4-yl]ethoxy}-1H-inden-1-one hydrochloride salt], the activity at 10 µM was 185%.
CS(=O)(=O)N1CCC(CCOc2ccc3c(c2)C(=O)C(c2cnc4ccccc4c2)=C3c2cc(F)cc(F)c2)CC1 [Example 101, 3-(3,5-difluorophenyl)-6-{2-[1-(methylsulfonyl)piperidin-4-yl]ethoxy}-2-(quinolin-3-yl)-1H-inden-1-one hydrochloride salt] gave an activity at 10 µM of 216%.
Work on COc1ccc(C2=C(c3cc(F)cc(F)c3)c3ccc(OCCC4CCN(S(C)(=O)=O)CC4)cc3C2=O)cc1F [Example 102, 3-(3,5-difluorophenyl)-2-(3-fluoro-4-methoxyphenyl)-6-{2-[1-(methylsulfonyl)piperidin-4-yl]ethoxy}-1H-inden-1-one] yielded an activity at 10 µM of 220%.
Cc1ccc(C2=C(c3cc(F)cc(F)c3)c3ccc(OCCC4CCN(S(C)(=O)=O)CC4)cc3C2=O)cc1 [Example 103, 3-(3,5-difluorophenyl)-6-{2-[1-(methylsulfonyl)piperidin-4-yl]ethoxy}-2-p-tolyl-1H-inden-1-one] showed an activity at 10 µM of 209%.
In the case of CS(=O)(=O)N1CCN(CCCOc2ccc3c(c2)C(=O)C(c2cnc4ccccc4c2)=C3c2cc(F)cc(F)c2)CC1 [Example 104, 3-(3,5-difluorophenyl)-6-{3-[4-(methylsulfonyl)piperazin-1-yl]propoxy}-2-(quinolin-3-yl)-1H-inden-1-one hydrochloride salt], the activity at 10 µM is reported as 124%.
Compound Cc1ccc(C2=C(c3cc(F)cc(F)c3)c3ccc(OCCCN4CCN(S(C)(=O)=O)CC4)cc3C2=O)cc1 [Example 105, 3-(3,5-Difluorophenyl)-6-{3-[4-(methylsulfonyl)piperazin-1-yl]propoxy}-2-p-tolyl-1H-inden-1-one hydrochloride salt] has an activity at 10 µM of 99%.
Work on COc1ccc(C2=C(c3cc(F)cc(F)c3)c3ccc(OCCCN4CCN(S(C)(=O)=O)CC4)cc3C2=O)cc1F [Example 106, 2-(3-fluoro-4-methoxyphenyl)-3-(3,5-difluorophenyl)-6-{3-[4-(methylsulfonyl)piperazin-1-yl]propoxy}-1H-inden-1-one hydrochloride salt] yielded an activity at 10 µM of 133%.
In the case of COc1ccc(C2=C(c3cc(F)cc(F)c3)c3ccc(OCCCN4CCN(S(C)(=O)=O)CC4)cc3C2=O)cn1 [Example 107, 3-(3,5-difluorophenyl)-2-(6-methoxypyridin-3-yl)-6-{3-[4-(methylsulfonyl)piperazin-1-yl]propoxy}-1H-inden-1-one hydrochloride salt], the activity at 10 µM is reported as 286%.
In the case of Cc1ccc(C2=C(c3ccc(F)cc3F)c3ccc(OCCCN4CCN(S(C)(=O)=O)CC4)cc3C2=O)cc1 [Example 108, 3-(2,4-difluorophenyl)-6-{3-[4-(methylsulfonyl)piperazin-1-yl]propoxy}-2-p-tolyl-1H-inden-1-one], the activity at 10 µM is reported as 111%.
Compound COc1ccc(C2=C(c3ccc(F)cc3F)c3ccc(OCCCN4CCN(S(C)(=O)=O)CC4)cc3C2=O)cn1 [Example 109, 3-(2,4-difluorophenyl)-6-{3-[4-(methylsulfonyl)piperazin-1-yl]propoxy}-2-(6-methoxypyridin-3-yl)-1H-inden-1-one] has an activity at 10 µM of 177%.
Compound COc1ccc(C2=C(c3ccc(F)cc3F)c3ccc(OCCCN4CCN(S(C)(=O)=O)CC4)cc3C2=O)cc1F [Example 110, 2-(3-fluoro-4-methoxyphenyl)-3-(2,4-difluorophenyl)-6-{3-[4-(methylsulfonyl)piperazin-1-yl]propoxy}-1H-inden-1-one] has an activity at 10 µM of 207%.
In the case of CS(=O)(=O)N1CCN(CCCOc2ccc3c(c2)C(=O)C(c2cnc4ccccc4c2)=C3c2ccc(F)cc2F)CC1 [Example 111, 3-(2,4-difluorophenyl)-6-{3-[4-(methylsulfonyl)piperazin-1-yl]propoxy}-2-(quinolin-3-yl)-1H-inden-1-one], the activity at 10 µM is reported as 117%.
Cc1ccc(C2=C(c3ccc(F)cc3F)c3ccc(OCCN4CCS(=O)(=O)CC4)cc3C2=O)cc1 [Example 112, 3-(2,4-difluorophenyl)-6-[2-(1,1-dioxothiomorpholin-4-yl)ethoxy]-2-p-tolyl-1H-inden-1-one] gave an activity at 10 µM of 70%.
For COc1ccc(C2=C(c3ccc(F)cc3F)c3ccc(OCCN4CCS(=O)(=O)CC4)cc3C2=O)cn1 [Example 113, 3-(2,4-difluorophenyl)-2-(6-methoxypyridin-3-yl)-6-[2-(1,1-dioxothiomorpholin-4-yl)ethoxy]-1H-inden-1-one], the activity at 10 µM was 217%.
COc1ccc(C2=C(c3ccc(F)cc3F)c3ccc(OCCN4CCS(=O)(=O)CC4)cc3C2=O)cc1F [Example 114, 2-(3-fluoro-4-methoxyphenyl)-3-(2,4-difluorophenyl)-6-[2-(1,1-dioxothiomorpholin-4-yl)ethoxy]-1H-inden-1-one] gave an activity at 10 µM of 286%.
Work on O=C1C(c2cnc3ccccc3c2)=C(c2ccc(F)cc2F)c2ccc(OCCN3CCS(=O)(=O)CC3)cc21 [Example 115, 3-(2,4-difluorophenyl)-6-[2-(1,1-dioxothiomorpholin-4-yl)ethoxy]-2-(quinolin-3-yl)-1H-inden-1-one] yielded an activity at 10 µM of 199%.
Cc1ccc(C2=C(c3ccc(F)cc3F)c3ccc(OCCN4CCN(S(C)(=O)=O)CC4)cc3C2=O)cc1 [Example 116, 3-(2,4-difluorophenyl)-6-{2-[4-(methylsulfonyl)piperazin-1-yl]ethoxy}-2-p-tolyl-1H-inden-1-one] was tested, and the activity at 10 µM was 71%.
COc1ccc(C2=C(c3ccc(F)cc3F)c3ccc(OCCN4CCN(S(C)(=O)=O)CC4)cc3C2=O)cn1 [Example 117, 3-(2,4-difluorophenyl)-2-(6-methoxypyridin-3-yl)-6-{2-[4-(methylsulfonyl)piperazin-1-yl]ethoxy}-1H-inden-1-one] gave an activity at 10 µM of 98%.
Work on COc1ccc(C2=C(c3ccc(F)cc3F)c3ccc(OCCN4CCN(S(C)(=O)=O)CC4)cc3C2=O)cc1F [Example 118, 2-(3-fluoro-4-methoxyphenyl)-3-(2,4-difluorophenyl)-6-{2-[4-(methylsulfonyl)piperazin-1-yl]ethoxy}-1H-inden-1-one] yielded an activity at 10 µM of 311%.
For CS(=O)(=O)N1CCN(CCOc2ccc3c(c2)C(=O)C(c2cnc4ccccc4c2)=C3c2ccc(F)cc2F)CC1 [Example 119, 3-(2,4-difluorophenyl)-6-{2-[4-(methylsulfonyl)piperazin-1-yl]ethoxy}-2-(quinolin-3-yl)-1H-inden-1-one], the activity at 10 µM was 170%.
Cc1ccc(C2=C(c3ccc(F)cc3F)c3ccc(OCCC4CCN(S(C)(=O)=O)CC4)cc3C2=O)cc1 [Example 120, 3-(2,4-difluorophenyl)-6-{2-[1-(methylsulfonyl)piperidin-4-yl]ethoxy}-2-p-tolyl-1H-inden-1-one] gave an activity at 10 µM of 169%.
Work on COc1ccc(C2=C(c3ccc(F)cc3F)c3ccc(OCCC4CCN(S(C)(=O)=O)CC4)cc3C2=O)cn1 [Example 121, 3-(2,4-difluorophenyl)-2-(6-methoxypyridin-3-yl)-6-{2-[1-(methylsulfonyl)piperidin-4-yl]ethoxy}-1H-inden-1-one] yielded an activity at 10 µM of 207%.
Compound COc1ccc(C2=C(c3ccc(F)cc3F)c3ccc(OCCC4CCN(S(C)(=O)=O)CC4)cc3C2=O)cc1F [Example 122, 2-(3-fluoro-4-methoxyphenyl)-3-(2,4-difluorophenyl)-6-{2-[1-(methylsulfonyl)piperidin-4-yl]ethoxy}-1H-inden-1-one] has an activity at 10 µM of 203%.
CS(=O)(=O)N1CCC(CCOc2ccc3c(c2)C(=O)C(c2cnc4ccccc4c2)=C3c2ccc(F)cc2F)CC1 [Example 123, 3-(2,4-difluorophenyl)-6-{2-[1-(methylsulfonyl)piperidin-4-yl]ethoxy}-2-(quinolin-3-yl)-1H-inden-1-one] gave an activity at 10 µM of 164%.
Compound COc1ccc(C2=C(c3ccc(F)cc3F)c3ccc(OCCN4CCOCC4)cc3C2=O)cn1 [Example 125, 3-(2,4-difluorophenyl)-2-(6-methoxypyridin-3-yl)-6-[2-(morpholin-4-yl)ethoxy]-1H-inden-1-one] has an activity at 10 µM of 63%.
COc1ccc(C2=C(c3ccc(F)cc3F)c3ccc(OCCN4CCOCC4)cc3C2=O)cc1F [Example 126, 2-(3-fluoro-4-methoxyphenyl)-3-(2,4-difluorophenyl)-6-[2-(morpholin-4-yl)ethoxy]-1H-inden-1-one] was tested, and the activity at 10 µM was 73%.
O=C1C(c2cnc3ccccc3c2)=C(c2ccc(F)cc2F)c2ccc(OCCN3CCOCC3)cc21 [Example 127, 3-(2,4-difluorophenyl)-6-[2-(morpholin-4-yl)ethoxy]-2-(quinolin-3-yl)-1H-inden-1-one] gave an activity at 10 µM of 55%.
